The results in this text go back to ChEMBL document CHEMBL2074515, “Inhibitory effect of anti-diabetic agents on rat organic anion transporter rOAT1” (Eur J Pharmacol, 2000).

pKi: −log10 of the molar value.

For the experiment, the target named is T1, Solute carrier family 22 member 6 (Rattus norvegicus, UniProt O35956).
T1 sequence (O35956 whole entry): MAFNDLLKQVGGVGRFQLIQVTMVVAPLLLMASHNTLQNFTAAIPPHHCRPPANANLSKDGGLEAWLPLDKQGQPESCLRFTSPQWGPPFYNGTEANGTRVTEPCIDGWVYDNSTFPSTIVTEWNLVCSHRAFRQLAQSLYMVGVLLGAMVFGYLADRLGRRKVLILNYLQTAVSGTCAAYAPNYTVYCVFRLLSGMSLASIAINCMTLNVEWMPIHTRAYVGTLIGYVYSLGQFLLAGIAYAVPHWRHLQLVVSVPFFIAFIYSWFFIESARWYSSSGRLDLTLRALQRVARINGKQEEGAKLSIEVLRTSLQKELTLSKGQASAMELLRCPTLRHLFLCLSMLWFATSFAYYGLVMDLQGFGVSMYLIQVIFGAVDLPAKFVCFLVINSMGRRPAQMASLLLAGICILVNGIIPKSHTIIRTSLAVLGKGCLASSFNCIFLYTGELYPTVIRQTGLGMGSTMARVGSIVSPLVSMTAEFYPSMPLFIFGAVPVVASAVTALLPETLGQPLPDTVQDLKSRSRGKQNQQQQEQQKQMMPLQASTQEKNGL
Kind of experiment: TP_TRANSPORTER: inhibition of PAH uptake in Xenopus laevis oocytes. In kind it is functional, cell-based, Oocyte.
Consider `CC(C)[C@H]1CC[C@H](C(=O)N[C@H](Cc2ccccc2)C(=O)O)CC1` [NATEGLINIDE], for which the pKi (commonly the Ki on a negative log10 scale, so that one unit is a factor of ten) is 5.04. The result for `CCCNC(=O)NS(=O)(=O)c1ccc(Cl)cc1` [CHLORPROPAMIDE] reads 4.40; that for `COc1ccc(Cl)cc1C(=O)NCCc1ccc(S(=O)(=O)NC(=O)NC2CCCCC2)cc1` [GLYBURIDE], 5.80.

Compound `CCCCNC(=O)NS(=O)(=O)c1ccc(C)cc1` [TOLBUTAMIDE] showed a pKi of 4.26.
